# From patent publication US20060135569A1, “Use of benzisoselenazolone compounds against ischemic myocardial damage” (priority 2002, published 2006)
# Marks after values point to notes of the source that are not given here.
# Tests used:
# KM mice = experiment: Acute toxicity study in mice; format: in vivo
# Method: Acute toxicity studies were performed with IMM-004 and IMM-127 (synthesized by ourselves). The compound was provided as powder, which was milled and suspended in 0.5% carboxymethylcellulose sodium (CMC—Na) before use.
# Male KM mice weighting 19±2 g were housed for an adaptation before use. Mice were randomly divided into groups, and each group consists of 10 animals. Mice were all fasted for 14 hrs before the administration of the tested compounds. Activity of mice in high dose group was reduced 30 min after the administration. 24 h after the administration, mice in each group were restored to normal. Mice were observed daily for a period of 7 days after the administration.
# TA97 = experiment: Ames test, strain TA97; format: cell-based
# Method: (§1) To assess the mutagenic effects of 5 compounds (IMM-004; IMM-065; IMM-127; IMM-128; IMM-313), the Ames test was performed in 4 strains (TA97; TA98; TA100; TA102). The experiment was conducted with compounds at 4 concentration levels (0.5, 5, 50 and 500 μg/dish). […]
# [1] = system: isolated rat hearts subjected to ischemia-reperfusion (I/R); experiment: Isolated heart subjected to ischemia/reperfusion injury (arrhythmia); conditions: for AAT: arrhythmic occurrence time, Time / VF (ventricular fibrillation) Incidence rate (%) / VPS (ventricular premature beats) Incidence rate (%) / VT (ventricular tachycardia) Incidence rate (%): 10^−6 M, isolated heart ischemia/reperfusion
# Outline: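 Rat hearts perfused in vitro and subjected to ischemia-reperfusion after drug exposure. Recorded endpoints: duration of ventricular arrhythmia and incidence of ventricular extrasystole and VT/VF.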
# TA97; TA98; TA100; TA102 = experiment: Ames (mutagenesis) test, overall result in 4 strains; format: cell-based; conditions: 0.5, 5, 50 and 500 μg/dish
# Method: as §1
# [2] = system: arrhythmia induced by ischemia/reperfusion insults in anesthetized rats; experiment: Ischemia/reperfusion arrhythmia in anesthetized rats, oral administration; format: in vivo, rat; conditions: for protective effect: incidence/duration of VT, VF, duration of ventricular arrhythmic / protective effect: incidence/duration of VT, duration of ventricular arrhythmic: rats; for protective effect: incidence/duration of VT, duration of ventricular arrhythmic: 100 mg/kg orally
# Method: IMM-004 and IMM-127 were dissolved in the solution of ethanol and PEG (ethanol: PEG (v/v)=1:9). Rats were orally administrated the compounds at volume of 10 ml/Kg. The left anterior descending coronary artery was ligated in rats for 15 min at 60 min after the administration, and then the reprefusion was achieved.
# Arrhythmic potency induced by myocardial insults was used to assess the potential protective effect of the compounds.
# TA102 = experiment: Ames test, strain TA102; format: cell-based
# Method: as §1
structure (smiles),measurement,setting,value
"O=c1c2cc(F)ccc2[se]n1-c1ccccn1 [IMM-127, 5-fluoro-2-(2-pyridyl)-1,2-benz-isoselenazol-3(2H)-one]",Lethal cases,"KM mice; 5 g/kg, 10 mice per group, 7 days observation",7
same,TA97 +S9,TA97; 0.5 μg/dish,60.67 ± 3.86
same,TA97 −S9,TA97; 0.5 μg/dish,60.00 ± 8.16
same,TA97 +S9,TA97; 5 μg/dish,59.67 ± 8.18
same,TA97 −S9,TA97; 5 μg/dish,56.67 ± 13.27
same,TA97 +S9,TA97; 50 μg/dish,68.50 ± 2.50
same,TA97 −S9,TA97; 50 μg/dish,60.33 ± 3.77
same,TA97 +S9,TA97; 500 μg/dish,48.00 ± 2.16
same,TA97 −S9,TA97; 500 μg/dish,57.33 ± 6.94
same,"AAT: arrhythmic occurrence time, Time",[1],19.72 ± 4.42 min
same,VF (ventricular fibrillation) Incidence rate (%),[1],38%
same,VPS (ventricular premature beats) Incidence rate (%),[1],50%
same,VT (ventricular tachycardia) Incidence rate (%),[1],62.5%
same,mutagenic effect (Ames test),TA97; TA98; TA100; TA102,No evidence for a mutagenic effect
same,"protective effect: incidence/duration of VT, VF, duration of ventricular arrhythmic",[2]; 10 mg/Kg orally,significantly reduced
same,Occurrence time,[2]; 10 mg/Kg p.o.,15.5 ± 21.5 s
same,VE Duration time,[2]; 10 mg/Kg p.o.,2.5 ± 6.4 s
same,VE Incidence (%),[2]; 10 mg/Kg p.o.,100%
same,VF Duration time,[2]; 10 mg/Kg p.o.,6.6 ± 7.2 s
same,VF Incidence (%),[2]; 10 mg/Kg p.o.,22.2%
same,VT Duration time,[2]; 10 mg/Kg p.o.,32.1 ± 26.1 s
same,VT Incidence (%),[2]; 10 mg/Kg p.o.,66.7%
same,"protective effect: incidence/duration of VT, VF, duration of ventricular arrhythmic",[2]; 30 mg/Kg orally,all reduced
same,Occurrence time,[2]; 30 mg/Kg p.o.,9.6 ± 9.2 s
same,VE Duration time,[2]; 30 mg/Kg p.o.,0.2 ± 0.5 s
same,VE Incidence (%),[2]; 30 mg/Kg p.o.,100%
same,VF Duration time,[2]; 30 mg/Kg p.o.,3.2 ± 5.5 s
same,VF Incidence (%),[2]; 30 mg/Kg p.o.,11.1* %
same,VT Duration time,[2]; 30 mg/Kg p.o.,18.0 ± 11.4 s
same,VT Incidence (%),[2]; 30 mg/Kg p.o.,66.7%
same,Occurrence time,[2]; 100 mg/Kg p.o.,9.0 ± 19.7 s
same,VE Duration time,[2]; 100 mg/Kg p.o.,2.2 ± 63 s
same,VE Incidence (%),[2]; 100 mg/Kg p.o.,88.9%
same,VF Duration time,[2]; 100 mg/Kg p.o.,5.1 ± 7.8 s
same,VF Incidence (%),[2]; 100 mg/Kg p.o.,22.2%
same,VT Duration time,[2]; 100 mg/Kg p.o.,31.1 ± 21.3 s
same,VT Incidence (%),[2]; 100 mg/Kg p.o.,44.4** %
same,"protective effect: incidence/duration of VT, duration of ventricular arrhythmic",[2],reduced
same,TA102 +S9,TA102; 0.5 μg/dish,205.33 ± 17.98
same,TA102 −S9,TA102; 0.5 μg/dish,199.67 ± 17.13
same,TA102 +S9,TA102; 5 μg/dish,216.00 ± 21.42
same,TA102 −S9,TA102; 5 μg/dish,224.67 ± 16.34
same,TA102 +S9,TA102; 50 μg/dish,250.67 ± 15.43
same,TA102 −S9,TA102; 50 μg/dish,195.33 ± 35.22
same,TA102 +S9,TA102; 500 μg/dish,233.33 ± 16.11
same,TA102 −S9,TA102; 500 μg/dish,143.67 ± 19.01
"O=c1c2cc(Cl)ccc2[se]n1-c1ccccn1 [IMM-004, 5-chloro-2-(2-pyridyl)-1,2-benz-isoselenazol-3(2H)-one]",mortality in the dose groups,"KM mice; all dose groups, mice",no mortality
same,TA97 +S9,TA97; 0.5 μg/dish,55.33 ± 24.36
same,TA97 −S9,TA97; 0.5 μg/dish,54.33 ± 4.78
same,TA97 +S9,TA97; 5 μg/dish,80.67 ± 8.58
same,TA97 −S9,TA97; 5 μg/dish,54.67 ± 4.99
same,TA97 +S9,TA97; 50 μg/dish,204.67 ± 29.41
same,TA97 −S9,TA97; 50 μg/dish,47.00 ± 5.72
same,TA97 +S9,TA97; 500 μg/dish,67.33 ± 36.59
same,TA97 −S9,TA97; 500 μg/dish,55.50 ± 3.50
same,protective effects on myocardial insults,"[1]; 10^−6M, isolated heart",significant protective effects
same,"AAT: arrhythmic occurrence time, Time",[1],0.70 ± 0.33 min
same,VF (ventricular fibrillation) Incidence rate (%),[1],0** %
same,VPS (ventricular premature beats) Incidence rate (%),[1],37.5%
same,VT (ventricular tachycardia) Incidence rate (%),[1],37.5%
same,mutagenic effect (Ames test),TA97; TA98; TA100; TA102,No evidence for a mutagenic effect
same,"protective effect: incidence/duration of VT, VF, duration of ventricular arrhythmic",[2]; 10 mg/Kg orally,No protective effect
same,Occurrence time,[2]; 10 mg/Kg p.o.,9.3 ± 10.0 s
same,VE Duration time,[2]; 10 mg/Kg p.o.,4.7 ± 12.9 s
same,VE Incidence (%),[2]; 10 mg/Kg p.o.,100%
same,VF Duration time,[2]; 10 mg/Kg p.o.,8.8 ± 7.4 s
same,VF Incidence (%),[2]; 10 mg/Kg p.o.,22.2%
same,VT Duration time,[2]; 10 mg/Kg p.o.,30.2 ± 17.6 s
same,VT Incidence (%),[2]; 10 mg/Kg p.o.,88.9%
same,"protective effect: incidence/duration of VT, VF, duration of ventricular arrhythmic",[2]; 30 mg/Kg orally,all reduced
same,Occurrence time,[2]; 30 mg/Kg p.o.,19.6 ± 24.1 s
same,VE Duration time,[2]; 30 mg/Kg p.o.,0.4 ± 1.3 s
same,VE Incidence (%),[2]; 30 mg/Kg p.o.,66.7%
same,VF Duration time,[2]; 30 mg/Kg p.o.,3.3 ± 5.7 s
same,VF Incidence (%),[2]; 30 mg/Kg p.o.,11.1* %
same,VT Duration time,[2]; 30 mg/Kg p.o.,17.0 ± 12.6 s
same,VT Incidence (%),[2]; 30 mg/Kg p.o.,44.4** %
same,Occurrence time,[2]; 100 mg/Kg p.o.,16.4 ± 25.1 s
same,VE Duration time,[2]; 100 mg/Kg p.o.,5.5 ± 10.2 s
same,VE Incidence (%),[2]; 100 mg/Kg p.o.,66.7%
same,VF Duration time,[2]; 100 mg/Kg p.o.,3.9 ± 6.8 s
same,VF Incidence (%),[2]; 100 mg/Kg p.o.,33.3%
same,VT Duration time,[2]; 100 mg/Kg p.o.,22.7 ± 19.4 s
same,VT Incidence (%),[2]; 100 mg/Kg p.o.,55.5* %
same,"protective effect: incidence/duration of VT, duration of ventricular arrhythmic",[2],all reduced
same,TA102 +S9,TA102; 0.5 μg/dish,328.67 ± 26.39
same,TA102 −S9,TA102; 0.5 μg/dish,164.67 ± 62.66
same,TA102 +S9,TA102; 5 μg/dish,250.67 ± 7.54
same,TA102 −S9,TA102; 5 μg/dish,218.67 ± 23.79
same,TA102 +S9,TA102; 50 μg/dish,297.33 ± 24.07
same,TA102 −S9,TA102; 50 μg/dish,52.67 ± 6.59
same,TA102 +S9,TA102; 500 μg/dish,284.00 ± 64.27
same,TA102 −S9,TA102; 500 μg/dish,16.00 ± 5.89
